Here are results for three molecules from patent US6218378A, “Anti-tumor agents comprising pyridyl-substituted metal-diphosphine complex” (priority 1994, dated 2001).

“And” between values parts separate entries of the source, which are not always exact repeats. Equal values may be shown once. Read-outs that look alike come from different tables or passages of the source.

Usually IC50 stands for the concentration at which inhibition is half-maximal.

In series [1] the test system is HeLa-S1a. The note with it: ID37 data from Ying Dong et al. submitted for publication; cited from earlier work.
For series [2], the system named is CH1. The note with it: data from Kelland et al., 1992; cited from earlier work.
Series [3] deals with 41M. The note with it: data from Kelland et al., 1992; cited from earlier work.
For series [4], the system named is HeLa. The note with it: ID37 data from Ying Dong et al. submitted for publication; cited from earlier work.
Series [5] concerns 41M-cisR. The note with it: data from Kelland et al., 1992; cited from earlier work.
The test system of series [6] is SKOV-3. The note with it: data from McKeage et al., 1994; cited from earlier work.
The subject of series [7] is CI-80-13S. Particulars: ID37 data from Ying Dong et al. submitted for publication; cited from earlier work.
The subject of series [8] is JAM. The note with it: ID37 data from Ying Dong et al. submitted for publication; cited from earlier work.
Series [9] concerns CH1-cisR. Particulars: data from Kelland et al., 1992; cited from earlier work.
The next series concerns Rhodamine 123 uptake. The note with it: cells treated with cisplatin; cited from earlier work.
The conditions of series [10]: from Chen in Cancer Cells 1; cited from earlier work.
In series [11] the test system is mitochondria of carcinoma derived cells. The note with it: carcinoma derived versus untransformed cells; cited from earlier work.
Series [12] relates to 41M. The series is described as follows: cytotoxicity assay, sulforhodamine B. Format: cell-based, human. Particulars: 96 hrs, mean ± SD or individual values when n<3. On the procedure: (§1) In Table 2, reference is made to cell lines 41M, 41M-cisR, SKOV-3, CH1 and CH1-cisR.
(§2) J. Cancer 69 1-7. The characteristics of the cell line pairs CH1/CH1 cisR, 41M/41McisR and 41M/SKOV3 are described in Table 3.
(§3) The cytotoxicity assay used sulforhodamine B which stains the basic amino acids. Cells (5000 or 2500 for SKOV-3) were seeded into 96 well microtitre plates (Linbro, Flow Laboratories Inc., USA) in 0.1 ml of medium. After an overnight incubation, the metal phosphine compounds were dissolved in 0.9% NaCl or ethanol and diluted with medium, were added at concentrations ranging from 0.005 to 50 μM to quadruplicate wells. After 96 hrs incubation, the medium was removed and cells were fixed in 0.2 ml of cold 10% (w/v) trichloroacetic acid (May & Baker Ltd., Dagenham, England) for 30 mins at 4° C. The plates were washed five times with tap water. Then 0.1 ml of 0.4% (w/v) sulforhodamine B (Sigma Chemical Co., St. Louis, USA) dissolved in 1% acetic acid (Ajax Chemicals, Australia) was added to the wells and left to stand at room temperature for 15 mins. The plates were then washed five times with 1% acetic acid and left to dry overnight. The next morning, 0.1 ml of 10 mM Tris buffer (Sigma Chemical Co., St. Louis, USA) was then added to each plate to solubilise the dye. Absorbance was read at a wavelength of 570 nm using a 96 well plate reader Dynatech MR 5000 plate reader. Absorbance of treatment cells was expressed as a percentage of positive (drug-free) controls. The results were plotted as percentage growth versus drug concentration.

The subject of series [13] is CH1. The series can be described thus: cytotoxicity assay, sulforhodamine B. Format: cell-based, human. The note with it: Homo sapiens, 96 hrs, mean ± SD or individual values when n<3. On the procedure:
as §1, §2, §3

Series [14] has as its system SKOV-3. The series can be described thus: cytotoxicity assay, sulforhodamine B. Format: cell-based, human. Particulars: mean ± SD or individual values when n<3. On the procedure:
as §1, §2, §3

The subject of series [15] is CH1-cisR. The series is described as follows: cytotoxicity assay, sulforhodamine B. Format: cell-based, human. Particulars: Homo sapiens, CH1cisR, 96 hrs, mean ± SD or individual values when n<3. On the procedure: as §1, §2, §3
Series [16] concerns 41M-cisR. The series can be described thus: cytotoxicity assay, sulforhodamine B. The note with it: 96 hrs, mean ± SD or individual values when n<3. Format: cell-based, human. On the procedure:
as §1, §2, §3

In series [17] the test system is 41M, 41M-cisR, SKOV-3, CH1, CH1-cisR. The series can be described thus: growth inhibition of cisplatin-sensitive and -resistant ovarian cancer cell lines (Table 2, FIG. 5). Format: cell-based, human.
Text: The sensitive CH1 cell line was established from a patient with drug-sensitive disease and its resistant variant (CH1-cisR) was generated by prolonged in vitro exposure to cisplatin during which it acquired more efficient DNA repair as described in Kelland et al., 1992, Cancer Research 52 3857-3864. The sensitive 41M cell line was also established from a patient with a sensitive tumor and its resistant variant (41M-cisR) was generated in the same way but acquired decreased uptake across the cell membrane (Kelland et al., 1992, supra). The intrinsically-resistant SKOV-3 ovarian carcinoma cell line has high glutathione levels as described in Mistry et al., 1991, Brit. J. Cancer 64 215-220 and reduced levels of bi-functional cisplatin-DNA lesions as described in McKeage et al., 1994, Brit. J. Cancer 69 1-7. The characteristics of the cell line pairs CH1/CH1 cisR, 41M/41McisR and 41M/SKOV3 are described in Table 3.
as §3, with “concentration. The drug concentration resulting in a 50% growth inhibition was termed the IC50. The passage numbers used for the cytotoxicity assay from each cell line were, CH1 passages 50-58, CH1 cis-R passages 77-83, 41M passages 50-63, 41M cisR 81-92 and SKOV-3 passages 106-128.” for “concentration.”

Series [18] deals with four human tumour cell lines (MM96, HeLa, CI-80-13S, HeLa-S1a). The series is described as follows: cytotoxicity against four human tumour cell lines in vitro (FIGS. 3 and 4). Format: cell-based. An excerpt:
(§4) The origins of the human melanoma cell line MM96 has been described in Whitehead et al., 1973, Pigment Cell 1 383-389. The cell line JAM is described in Ward et al., 1987, Cancer Res. 47 2662-2667. The origin of the ovarian tumour line CI-80-13S has been described in Bertoncello et al., 1985, Aust. J. Exp. Biol. Med. Sci. 63 241-243. The origin of the cervical carcinoma cell line HeLa has been described in Maynard et al., 1986, Cancer Res. 46 5009-5093. The subclone HeLa-S1a was derived by stably transfecting HeLa with PAI-2 cDNA described in Schleuning et al., 1987, Mol. Cell. Biol. 7 4564-4567 in the sense orientation under the control of the cyto-megalovirus (CMV) promoter. The stably infected subclone was isolated following G418 selection and expression of the PAI-2 transgene characterised by immunoblot analysis and quantitated by ELISA. All of these cell lines have been used before for carrying out cell survival assays referred to in FIGS. 1-4. Cells were cultured at 37° in 5% CO2 /air in Roswell Park Memorial Institute medium 1640 containing 5% foetal calf serum, 100 μg/ml streptomycin, 100 IU/ml penicillin, 1 mM pyruvate, 50 μM nicotinamide and 3 mM HEPES.
(§5) Cells were seeded in microtitre plates (lowest number for fastest growing cells: 1000 HeLa, 2000 MM96, […] CI-80-13S cells per 6 mm well in 100 μl), normally but not necessarily allowed to attach overnight, then 5 dilutions of the drug were added to duplicate wells. After an overnight incubation to equilibrate the pH, the lids were quickly taped around the edge to prevent evaporation. The plates were incubated for 5-7 days, until the controls were nearly confluent. Cell growth/morphology was scored at each dose visually (inverted microscope). The medium was then replaced by 50 μl fresh medium containing 2 u/Ci/ml [methyl-3H]-thymidine (5 Ci/mmol; Radiochemical Centre, Amersham, Bucks., U.K.) and incubated for 2-4 hr. The cells were washed with PBS (0.1 M NaCl, 50 mM phosphate, pH 7.2), detached with 100 μl of PBS containing 0.2 mg/ml trypsin and 10 mM EDTA, and washed onto a glass fibre GF/a filter mat with water using a cell harvester. Later, wells were checked under the microscope to ensure complete detachment and washout. Radioactivity was determined in an LKB Beta Plate counter and the results plotted as log % control cpm versus dose. The ID50 (dose required to give 50% survival) was interpolated from this survival curve.
We have tested the following compounds of formula (III) against the four human tumour cell lines described above, i.e.: […]

For series [19], the system named is JAM. The series is described as follows: cell survival after drug treatment ([methyl-3H]-thymidine). Format: cell-based, human. The note with it: mean ± SD or individual values when n<3, 5-7 days.
Text: (§6) In FIGS. 1-4 and Table 1, reference is made to the cell lines HeLa, HeLa-S1a, JAM, CI-80-13S and MM96.
as §4, §5

Series [20] has as its system HeLa. Described as above. Format: cell-based, human. Particulars: HeLa; mean ± SD or individual values when n<3; 5-7 days.
Text: as §6, §4, §5

Another series has as its system MM96. Described as above. Format: cell-based, human. The note with it: MM96L; mean ± SD or individual values when n<3; 5-7 days.
Text: as §6, §4, §5

The test system of series [21] is CI-80-13S. Described as above. Format: cell-based, human. The note with it: CI-80-13S; mean ± SD or individual values when n<3; 5-7 days.
Text: as §6, §4, §5

Series [22] deals with HeLa-S1a. The description is as above. Format: cell-based, human. Particulars: HeLa-S1a; mean ± SD or individual values when n<3; 5-7 days.
Text: as §6, §4, §5

Series [23] relates to CI-80-13S vs JAM; HeLa-S1a vs HeLa. The series is described as follows: relative cytotoxic potency in cisplatin-resistant and non-resistant cells (Table 1). Format: cell-based, human. Particulars: CI80-13-S vs JAM; HeLaS1a vs HeLa.
Text: as §4, with “All of these cell lines have been used before for carrying out cell survival assays referred to in FIGS. 1-4. Cells were cultured at 37° in 5% CO2 /air in Roswell Park Memorial Institute medium 1640 containing 5% foetal calf serum, 100 μg/ml streptomycin, 100 IU/ml penicillin, 1 mM pyruvate, 50 μM nicotinamide and 3 mM HEPES.” left out
Cells were seeded in microtitre plates (lowest number for fastest growing cells: 1000 HeLa, 2000 MM96, […] CI-80-13S cells per 6 mm well in 100 μl), normally but not necessarily allowed to attach overnight, then 5 dilutions of the drug were added to duplicate wells. […] Cell growth/morphology was scored at each dose visually (inverted microscope). […] Radioactivity was determined in an LKB Beta Plate counter and the results plotted as log % control cpm versus dose. […]

Turning to `N.N.[Cl][Pt][Cl]` [Cisplatin], the “ID37” value with HeLa-S1a [1] was 0.62 ± 0.08 µM; in the series with HeLa [4], 0.29 ± 0.04 µM; with CI-80-13S [7], 4.17 ± 0.5 µM; in the series with JAM [8], 0.83 ± 0.3 µM. The IC50 in the series on CH1 [2] is 110 ± 10 nM; in the series on 41M [3], 260 ± 100 nM; in the series on 41M-cisR [5] it was 1200 ± 400 nM; in the series with SKOV-3 [6], 2100 nM; in the series on CH1-cisR [9], 710 ± 200 nM. Also, the “Rhodamine 123 uptake” value in the series with Rhodamine 123 uptake is “Rhodamine 123 uptake increases”.

On to `CCN(CC)c1ccc2c(-c3ccccc3C(=O)O)c3ccc(=[N+](CC)CC)cc-3oc2c1` [Rhodamine, reference compound], for which, in series [10], the partition co-efficient is listed as 0.34. For the same molecule, the “ID37” value in the series on HeLa-S1a [1] is 0.58 ± 0.08 µM; with HeLa [4], 2.73 ± 0.28 µM; in the series with CI-80-13S [7] it was 0.105 ± 0.026 µM; in the series on JAM [8] it was 0.90 ± 0.03 µM. In addition, the accumulation in mitochondria entry in series [11] is given as “accumulate in the mitochondria of most carcinoma derived cells more rapidly than in most untransformed cells”. In addition, the IC50 in the series on 41M [12] (Homo sapiens) is 3000 nM; with CH1 [13], 900 nM; in the series on SKOV-3 [14] (Homo sapiens, SK-OV-3, 96 hrs) it was 1000 nM; with CH1-cisR [15] it was 500 nM; in the series on 41M-cisR [16] (Homo sapiens, 41McisR) it was 1000 nM. Further, the “sensitivity of cisplatin resistant cells versus non-resistant cells” value in [17] (41M/41M-cisR and CH1/CH1-cisR pairs) is “the cisplatin resistant cells are more sensitive to Rhodamine than the nonresistant cells”.

In the case of `[Cl-].[Cl-].c1ccc([P+]2(c3ccccn3)CC[P+](c3ccccn3)(c3ccccn3)[Au-3]23[P+](c2ccccn2)(c2ccccn2)CC[P+](c2ccccn2)(c2ccccn2)[Au-3]2([P+](c4ccccn4)(c4ccccn4)CC[P+]2(c2ccccn2)c2ccccn2)[P+](c2ccccn2)(c2ccccn2)CC[P+]3(c2ccccn2)c2ccccn2)nc1` [[Au2 (d2pype)4]Cl2], the “cytotoxicity (FIGS. 3 and 4)” value in series [18] (all four cell lines) is listed as “cytotoxic to all four cell lines”. Also, the “selectivity against the cisplatin-resistant lines” value in series [18] (compared with formula (I) or (V), R=4-pyridyl and 3-pyridyl) was “do not show the same selectivity”. Also, the IC50 is 700 nM with 41M [12]; 1100 nM with SKOV-3 [14] (96 hrs); 600 nM with 41M-cisR [16]; 100 nM and 390 nM in the series on JAM [19]; 240 ± 100 nM in the series with HeLa [20]; 90 nM with MM96. For the same molecule, the figures for the IC50 in the series on CI-80-13S [21] and in the series on HeLa-S1a [22] were 60 ± 30 nM and 60 nM, respectively. Also, in series [23], the “sensitivity of cisplatin-resistant cell lines versus non-resistant cells” value was “more sensitive”. In [17], the “selectivity and cytotoxicity in ovarian cancer cell-lines (FIG. 5)” value was “cytotoxic to the 41M pair and the resistant SKOV-3”.
